Several values for one entry are separate records, joined by “and”; a condition that tells them apart may be missing. Identical values can stand only once. Toxic doses and inconclusive results are not listed.
Test system: P388 leukemia ip, CD2F1 mice, survival T/C
Assay: NCI In Vivo Anticancer Drug Screen. Data for tumor model P388 Leukemia (intraperitoneal) in CD2F1 (CDF1) mice
Settings: endpoint: median survival time, higher = longer survival
In short: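 Mice carrying the transplanted tumor received test compound or vehicle. Survival was recorded in each group, and the value is the treated-group measurement divided by that of the vehicle-treated control group.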

[1] = dose: 100.0 mg/kg/injection, schedule: Q04DX003 (ip), vehicle: saline with Tween-80
[2] = dose: 200.0 mg/kg/injection, schedule: Q04DX003 (ip), vehicle: saline with Tween-80
[3] = dose: 400.0 mg/kg/injection, schedule: Q04DX003 (ip), vehicle: saline with Tween-80
[4] = dose: 60.0 mg/kg/injection, schedule: Q01DX005 (ip), vehicle: saline with Tween-80
[5] = dose: 120.0 mg/kg/injection, schedule: Q01DX005 (ip), vehicle: saline with Tween-80
[6] = dose: 240.0 mg/kg/injection, schedule: Q01DX005 (ip), vehicle: saline with Tween-80
[7] = dose: 100.0 mg/kg/injection, schedule: Q04DX003 (ip), vehicle: saline
[8] = dose: 200.0 mg/kg/injection, schedule: Q01DX009 (ip), vehicle: saline
[9] = dose: 12.5 mg/kg/injection, schedule: Q01DX009 (ip), vehicle: distilled water + Tween-80
[10] = dose: 25.0 mg/kg/injection, schedule: Q01DX009 (ip), vehicle: distilled water + Tween-80
[11] = dose: 50.0 mg/kg/injection, schedule: Q01DX009 (ip), vehicle: distilled water + Tween-80
[12] = dose: 100.0 mg/kg/injection, schedule: Q01DX009 (ip), vehicle: distilled water + Tween-80
[13] = dose: 200.0 mg/kg/injection, schedule: Q01DX009 (ip), vehicle: distilled water + Tween-80

COc1cccc2c1C(=O)c1c(O)c3c(c(O)c1C2=O)C[C@@](O)(C(=O)COC(=O)Cc1cccc2ccccc12)C[C@@H]3OC1CC(N)C(O)C(C)O1 (some centres undefined)
T/C (dose: 0.5 mg/kg/injection, schedule: Q01DX009 (ip), vehicle: other): 164 % of control
T/C (dose: 0.5 mg/kg/injection, schedule: Q01DX009 (ip), vehicle: saline with Tween-80): 169 % of control
T/C (dose: 0.5 mg/kg/injection, schedule: Q01DX009 (ip), vehicle: saline): 107 % of control
T/C (dose: 0.78 mg/kg/injection, schedule: Q01DX009 (ip), vehicle: other): 157 % of control
T/C (dose: 1.0 mg/kg/injection, schedule: Q01DX009 (ip), vehicle: other): 156 % of control
T/C (dose: 1.0 mg/kg/injection, schedule: Q01DX009 (ip), vehicle: saline with Tween-80): 183 % of control
T/C (dose: 1.0 mg/kg/injection, schedule: Q01DX009 (ip), vehicle: saline): 121 % of control
T/C (dose: 1.56 mg/kg/injection, schedule: Q01DX009 (ip), vehicle: other): 190 % of control
T/C (dose: 2.0 mg/kg/injection, schedule: Q01DX009 (ip), vehicle: other): 170 % of control
T/C (dose: 2.0 mg/kg/injection, schedule: Q01DX009 (ip), vehicle: saline with Tween-80): 231 % of control
T/C (dose: 2.0 mg/kg/injection, schedule: Q01DX009 (ip), vehicle: saline): 124 % of control
T/C (dose: 3.13 mg/kg/injection, schedule: Q01DX009 (ip), vehicle: other): 245 % of control
T/C (dose: 4.0 mg/kg/injection, schedule: Q01DX009 (ip), vehicle: other): 113 % of control
T/C (dose: 4.0 mg/kg/injection, schedule: Q01DX009 (ip), vehicle: saline with Tween-80): 161 % of control and 277 % of control
T/C (dose: 4.0 mg/kg/injection, schedule: Q01DX009 (ip), vehicle: saline): 122 % of control
T/C (dose: 8.0 mg/kg/injection, schedule: Q01DX009 (ip), vehicle: saline with Tween-80): 100 % of control
T/C (dose: 16.0 mg/kg/injection, schedule: Q01DX009 (ip), vehicle: saline with Tween-80): 99 % of control

CC(C)n1c(=S)[nH]c2ccccc2c1=O
T/C (dose: 100.0 mg/kg/injection, schedule: Q01DX009 (ip), vehicle: saline with Tween-80): 90 % of control
T/C [1]: 95 % of control
T/C (dose: 200.0 mg/kg/injection, schedule: Q01DX009 (ip), vehicle: saline with Tween-80): 90 % of control
T/C [2]: 95 % of control
T/C (dose: 400.0 mg/kg/injection, schedule: Q01DX009 (ip), vehicle: saline with Tween-80): 95 % of control
T/C [3]: 91 % of control

S=C1NCC(c2ccc(Cl)cc2)[Se]1 (centres undefined)
T/C (dose: 50.0 mg/kg/injection, schedule: Q01DX009 (ip), vehicle: DMSO): 100 % of control
T/C (dose: 100.0 mg/kg/injection, schedule: Q01DX009 (ip), vehicle: DMSO): 100 % of control

O/N=C\c1cc2ccccc2c[n+]1Cc1ccc2ccc3cccc4ccc1c2c34
T/C (dose: 6.25 mg/kg/injection, schedule: Q01DX005 (ip), vehicle: saline with Tween-80): 108 % of control
T/C (dose: 12.5 mg/kg/injection, schedule: Q01DX005 (ip), vehicle: saline with Tween-80): 108 % of control

COC(=O)C(=O)C(C)C(=O)C(C)c1nc(NC(=O)Nc2ccc(Cl)cc2)n[nH]1 (centres undefined)
T/C [4]: 101 % of control
T/C [5]: 101 % of control
T/C [6]: 100 % of control

Cn1nnc(C(=O)O)n1
T/C (dose: 50.0 mg/kg/injection, schedule: Q01DX001 (ip), vehicle: saline): 100 % of control
T/C (dose: 100.0 mg/kg/injection, schedule: Q01DX001 (ip), vehicle: saline): 100 % of control
T/C [7]: 103 % of control
T/C (dose: 200.0 mg/kg/injection, schedule: Q01DX001 (ip), vehicle: saline): 101 % of control
T/C (dose: 200.0 mg/kg/injection, schedule: Q04DX003 (ip), vehicle: saline): 103 % of control
T/C (dose: 400.0 mg/kg/injection, schedule: Q04DX003 (ip), vehicle: saline): 100 % of control

CCOC([O-])=N/C(C)=N/[n+]1ccccc1C
T/C (dose: 50.0 mg/kg/injection, schedule: Q01DX009 (ip), vehicle: saline): 107 % of control
T/C (dose: 100.0 mg/kg/injection, schedule: Q01DX009 (ip), vehicle: saline): 104 % of control
T/C [8]: 107 % of control

COc1cc2cc3c4cc(OC)c(OC)cc4cc(C)[n+]3cc2cc1OC
T/C (dose: 12.5 mg/kg/injection, schedule: Q01DX009 (ip), vehicle: water): 155 % of control
T/C (dose: 25.0 mg/kg/injection, schedule: Q01DX009 (ip), vehicle: water): 180 % of control
T/C (dose: 50.0 mg/kg/injection, schedule: Q01DX009 (ip), vehicle: water): 170 % of control
T/C (dose: 100.0 mg/kg/injection, schedule: Q01DX009 (ip), vehicle: water): 163 % of control

O=C(CN(O)C(=O)c1ccccc1)OCc1ccccc1
T/C [9]: 97 % of control
T/C [10]: 99 % of control
T/C [11]: 99 % of control
T/C [12]: 101 % of control
T/C [13]: 101 % of control

O=S(=O)(O)CCC(O)S(=O)(=O)O (centres undefined)
T/C (dose: 60.0 mg/kg/injection, schedule: Q01DX005 (ip), vehicle: saline): 102 % of control
T/C (dose: 120.0 mg/kg/injection, schedule: Q01DX005 (ip), vehicle: saline): 108 % of control
T/C (dose: 240.0 mg/kg/injection, schedule: Q01DX005 (ip), vehicle: saline): 94 % of control

COC1/C=C/OC2(C)Oc3c(C)c(O)c4c(O)c(c(/C=N/N5C(C)CN(Cc6cccc(C#N)c6)CC5C)c(O)c4c3C2=O)NC(=O)/C(C)=C\C=C\C(C)C(O)C(C)C(O)C(C)C(OC(C)=O)C1C (centres undefined)
T/C (dose: 12.5 mg/kg/injection, schedule: Q01DX009 (ip), vehicle: saline with Tween-80): 110 % of control
T/C (dose: 25.0 mg/kg/injection, schedule: Q01DX009 (ip), vehicle: saline with Tween-80): 109 % of control
T/C (dose: 50.0 mg/kg/injection, schedule: Q01DX009 (ip), vehicle: saline with Tween-80): 109 % of control and 118 % of control

O=N[O-].O=[N+]([O-])O.[Co+3].[NH2-].[NH2-].[NH2-].[NH2-].[NH2-]
T/C (dose: 12.5 mg/kg/injection, schedule: Q01DX001 (ip), vehicle: saline): 97 % of control
T/C (dose: 25.0 mg/kg/injection, schedule: Q01DX001 (ip), vehicle: saline): 110 % of control

Cc1ccc(S(=O)(=O)OCC2COC(C(C)C)OC2)cc1 (centres undefined)
T/C [4]: 99 % of control
T/C [5]: 90 % of control
T/C [6]: 90 % of control

CN(C)CC(Cl)CCl (centres undefined)
T/C (dose: 50.0 mg/kg/injection, schedule: Q04DX003 (ip), vehicle: saline): 109 % of control
T/C [7]: 109 % of control
T/C [8]: 195 % of control

O=C1C(F)=C(N2CC2)C(=O)C(F)=C1N1CC1
T/C (dose: 1.56 mg/kg/injection, schedule: Q01DX009 (ip), vehicle: saline): 115 % of control
T/C (dose: 3.12 mg/kg/injection, schedule: Q01DX009 (ip), vehicle: saline): 114 % of control
T/C (dose: 6.25 mg/kg/injection, schedule: Q01DX009 (ip), vehicle: saline): 150 % of control

O=C1c2ccccc2C(O)(C(=O)O)C1(O)CC=C(Cl)Cl (centres undefined)
T/C [9]: 103 % of control
T/C [10]: 99 % of control
T/C [11]: 91 % of control
T/C [12]: 95 % of control
T/C [13]: 91 % of control

FC(F)(F)C1(C(F)(F)F)O[Si]2(OC(C(F)(F)F)(C(F)(F)F)c3ccccc32)c2ccccc21 (tested in a mixture with another compound)
T/C (dose: 25.0 mg/kg/injection, schedule: Q04DX002 (ip), vehicle: Klucel (hydroxypropylcellulose) (HPC)): 109 % of control
T/C (dose: 50.0 mg/kg/injection, schedule: Q04DX002 (ip), vehicle: Klucel (hydroxypropylcellulose) (HPC)): 94 % of control
T/C (dose: 100.0 mg/kg/injection, schedule: Q04DX002 (ip), vehicle: Klucel (hydroxypropylcellulose) (HPC)): 100 % of control and 102 % of control

O=C(O)C(Cc1ccccc1)N=Cc1ccc(O)cc1 (centres undefined)
T/C [1]: 102 % of control
T/C [2]: 106 % of control
T/C [3]: 97 % of control

COc1ccc(OC)c(C2N(C)CCCN2C)c1
T/C (dose: 6.25 mg/kg/injection, schedule: Q01DX009 (ip), vehicle: saline sonified): 95 % of control
T/C (dose: 12.5 mg/kg/injection, schedule: Q01DX009 (ip), vehicle: saline sonified): 90 % of control
T/C (dose: 25.0 mg/kg/injection, schedule: Q01DX009 (ip), vehicle: saline sonified): 100 % of control

Reference: PubChem BioAssay AID330 (DTP/NCI, 2004)
